Test [1] relates to SARS-COV-2 UK variant (B.1.1.7).
Test [2] has as its system SARS-COV-2 Brazilian variant (P.1).
Test [3] addresses receptor binding domain (RBD) in the SARS-COV-2 UK variant (B.1.1.7) (Severe acute respiratory syndrome coronavirus 2, UniProt P0DTC2, N501Y).
In test [4] the target is receptor binding domain (RBD) in the SARS-COV-2 Brazilian variant (P.1) (Severe acute respiratory syndrome coronavirus 2, UniProt P0DTC2, E484K/K417T/N501Y).
The target in test [5] is receptor binding domain (RBD) in the SARS-COV-2 South African variant (B.1.351) (Severe acute respiratory syndrome coronavirus 2, UniProt P0DTC2, E484K/K417N/N501Y).
The target in test [6] is receptor binding domain (RBD) in the SARS-COV-2 Indian variant (δ type (B.1.617.2)) (Severe acute respiratory syndrome coronavirus 2, UniProt P0DTC2, L452R/T478K).
Test [7] deals with receptor binding domain (RBD) in the SARS-COV-2 Indian variant (κ type (B.1.617.1)) (Severe acute respiratory syndrome coronavirus 2, UniProt P0DTC2, E484Q/L452R).
Test [8] deals with receptor binding domain (RBD) in the SARS-COV-2 Omicron (sublineage BA.1) variant (B.1.1.529/BA.1) (Severe acute respiratory syndrome coronavirus 2, UniProt P0DTC2, E484A/G339D/G446S/G496S/K417N/N440K/N501Y/Q493R/Q498R/S371L/S373P/S375F/S477N/T478K/Y505H).
Test [9] deals with SARS-COV-2 Indian variant (δ type) (B.1.617.2).
For test [10], the system named is SARS-COV-2 Omicron (sublineage BA.1) variant (B.1.1.529/BA.1).

Experimental findings from patent US20240309059A1, “PEPTIDE HAVING ANTI-VIRAL ACTIVITY, ANTI-VIRAL AGENT COMPRISING SAID PEPTIDE, AND METHOD FOR PRODUCING SAID ANTI-VIRAL AGENT” (National University Corporation Tokyo Medical and Dental …, priority 2021, published 2024) are described below.

Ends that are not written are not given here.

What is called IC50 is the concentration needed to halve the response being measured.

Regarding “DKEWILQKIYEIMRRLDEEGHAEASMRVSDLIYEFMKKD [Ce9]”, the results for the IC50 in [1] and in [2] were 13 nM and 1200 nM, respectively.
“DKEWILQKIYEIMRRLDEEGHGEASLRVSDLIYEFMKKD [Ce41]”: the “binding activity to the receptor binding domain (RBD)” value in [3] is reported as “high binding activity”; in [4], “high binding activity”; in [5], “high binding activity”; in test [6] it was “high binding activity”; in test [7] it was “high binding activity”; in test [8], “cannot maintain binding”. The “dissociation from the RBD once bound” value in test [3] is reported as “does not dissociate at all”. This sequence registered an IC50 in [1] of 0.68 nM.
Regarding “DKEWILQKIYEIMRRLDEEGHGEASLRVSDLIYEFMKRD [Ce59]”, the IC50 in [9] was found to be 16 nM.
“DKEWILYKIYEIMVRLDEEGHGEASLMVSDLIYEFMKRD [Ce149]”: the IC50 in [1] was 0.0021 nM; in test [9], 0.15 nM; in [10], 1 nM.
Take “DKLWILQKIYEIMVRLDEEGHGEASLMVSDLIYEFMKRD [Ce172]”: the IC50 is 0.0022 nM in [1], 0.53 nM in [9] and 0.038 nM in test [10].
